Assay results reported in US8951508B2, “Compound” (DSM IP Assets B.V., priority 2009, dated 2015).

Assays:
[1] = Reduction of solvent necessary to dissolve solid UV-filter; format: physicochemical
[2] = e.g. C12-15 alkyl benzoate or diisopropyl sebaceate; typical value; cited from earlier work
[3] = Comparative solubility of BMDBM in 1:1 C12-15 alkyl benzoate/UV-filter mixtures, HPLC of supernatant after 1 month at RT; conditions: for effect on solubility of BMDBM in C12-15 alkyl benzoate: conclusion in words
Method: The solubility of BMDBM in a 1:1 (w/w) mixture of C12-15 alkyl benzoate and a polymeric, respectively a solid UV-filter (i.e. Polysilicone-15 (P-15), HY-B1, HY-B2, HY-AB, BEMT or Ethylhexyltriazone (EHT)) was determined by mixing 200 mg of BMDBM with 1000 mg of the 1:1 mixture and measuring the BMDBM concentration of the supernatant by HPLC after a storage period of 1 month at RT. Where necessary the mixture was centrifuged in order to obtain a clear supernatant.

Row | amount of 1:1 (w/w) mixture of PG-UVB1 and diisopropyl sebacate needed to dissolve 0.5 g BMDBM [1] [g] | amount of 1:1 (w/w) mixture of PG-UVB2 and C12-15 alkyl benzoate necessary to dissolve 0.5 g BMDBM [1] [g] | amount of C12-15 alkyl benzoate necessary to solubilize 0.5 g BMDBM [1] [g] | amount of diisopropyl sebacate necessary to solubilize 0.5 g BMDBM [1] [g] | reduction of the cosmetic solvent necessary to dissolve BMDBM ([1]; 1:1 (w/w) PG-UVB1/diisopropyl sebacate versus diisopropyl sebacate) [%] | reduction of the cosmetic solvent necessary to dissolve BMDBM ([1]; 1:1 (w/w) PG-UVB2/C12-15 alkyl benzoate versus C12-15 alkyl benzoate) [%] | Solubility of BMDBM in C12-15 alkyl benzoate ([3]; reference value without UV-filter, repeated per column) [wt.-%] | effect on solubility of BMDBM in C12-15 alkyl benzoate [3] | Solubility of BMDBM in C12-15 alkyl benzoate/UV-filter 1:1 ([3]; 200 mg BMDBM in 1000 mg 1:1 mixture, 1 month at RT, label = UV-filter in mixture) [wt.-%] | Solubility of BMDBM: Δ solubility ([3]; 1:1 mixture versus C12-15 alkyl benzoate, label = UV-filter in mixture) [wt.-%] | Solubility of BMDBM: Δ solubility related to cosmetic solvent ([3]; label = UV-filter in mixture) [wt.-%] | Structure (SMILES) | solubility in the conventional cosmetic oils [2]
1 | 1.4 | 1.5 | 3.0 | 2.0 | 65 | 75 | 14 | – | – | – | – | COc1ccc(C(=O)CC(=O)c2ccc(C(C)(C)C)cc2)cc1 [BMDBM, butyl methoxydibenzoylmethane] | less than 20%
2 | – | – | – | – | – | – | – | neither be enhanced | – | – | – | CCCCC(CC)COC(=O)c1ccc(Nc2nc(Nc3ccc(C(=O)OCC(CC)CCCC)cc3)nc(Nc3ccc(C(=O)OCC(CC)CCCC)cc3)n2)cc1 (stereo not shown) [EHT, Ethylhexyltriazone] | –
3 | – | – | – | – | – | – | – | neither be enhanced | 3 | −11 | −4 | CCCCC(CC)COc1ccc(-c2nc(-c3ccc(OC)cc3)nc(-c3ccc(OCC(CC)CCCC)cc3O)n2)c(O)c1 (stereo not shown) [BEMT, bis-ethylhexyloxyphenol methoxyphenyl triazine] | –
